Laboratory results taken from patent US9149480B2, “Use of meloxicam for the long-term treatment of musculoskeletal disorders in cats” (Boehringer Ingeleheim Vetmedica GmbH, priority 2010, dated 2015).

System: cats
Assay: Retrospective study of long-term meloxicam treatment in aged cats with osteoarthritis: progression of renal disease versus matched untreated controls
Format: in vivo, cat
Details: for progression of renal disease: maintenance dose of 0.02 mg/kg; for progression of renal parameters: median maintenance dose 0.02 mg/kg daily; for loss of urine concentrating ability / weight loss: time adjusted AUC change from baseline, Wilcoxon rank-sum-test
From the text: The medical records of a feline-only practice were searched for cats with OA being treated with meloxicam during a 4 year period. A diagnosis of OA was based upon any two of the following: owner noted mobility changes and/or physical examination findings or radiographic changes. Cats included were older than 7 years and treated with meloxicam for a duration of more than 6 months. Complete medical records were available for review. Biochemistry, urinalysis and body weight were regularly monitored. The progression of renal disease in the aged non-renal and renal group treated was compared to age matched and IRIS matched untreated controls from the same clinic.
The database of a feline-only practice in suburban Melbourne was searched for cats which had been treated for chronic musculoskeletal disorders with meloxicam (Metacam oral suspension, Boehringer Ingelheim) during a 4 year period. The diagnosis of osteoarthritis or spondylosis deformans had been made based upon any two of the following: owner noted mobility changes, physical examination findings or radiographic changes. The inclusion criteria included cats greater than 7 years old which had been treated continuously with meloxicam for a duration of more than 6 months and which had complete medical records available for review. In addition, cats were only included if serum biochemistry, urine analysis and body weight had been regularly monitored.
Young cats were excluded, as were cats with no pre-treatment renal parameter measurements. In addition cats were also excluded if the owner could not be contacted to check that the cats were still receiving daily treatment with meloxicam.
Age, breed, sex, concomitant diseases and medications as well as date treatment commenced, treatment duration and daily dose of meloxicam were recorded.
The presence or absence of pre-treatment renal disease and staging of the renal disease was carried out using plasma creatinine and urine specific gravity according to the following recognised International Renal Interest Society criteria (IRIS staging 2006):
The treated cats were then subdivided into two groups: the renal treated group that belonged to IRIS stage 1-3 and were pre-treated, and the non-renal treated group that has no identifiable renal disease pre-treatment. Urine specific gravity, serum creatinine and bodyweight were used as indicators of renal disease progression. The progression of renal disease was then compared to age and IRIS matched untreated controls were then randomly identified from the database of the same clinic.
The median age of the renal and non-renal treated cats, median treatment duration and median maintenance dose was calculated.
The progression of renal disease in the non-renal treated group was compared to the age matched untreated controls. The progression of renal disease in the treated renal-diseased group was compared to age matched and IRIS matched untreated controls from the same clinic. Statistical analysis was carried out using a time adjusted area-under-the-curve (AUC) changes from baseline time 0 until the last recorded value (n).
The Wilcoxon rank-sum-test was used to compare the groups. With this nonparametric test the distribution of the adjusted AUC of two groups was compared regarding the location. Under the null hypothesis it is assumed that there is no location shift in the distributions of the two treatment groups. If the resulting p-value is lower than the two-sided significance level of 5% the null hypothesis is rejected.

[1] = non-renal group treated with meloxicam vs non-renal group not treated
[2] = renal group treated with meloxicam vs age and IRIS matched untreated renal group

## Cc1cnc(NC(=O)C2=C(O)c3ccccc3S(=O)(=O)N2C)s1 [meloxicam]
Aged cats with pre-existent stable IRIS stage 1-3 renal disease
  progression of renal disease: does not hasten progression of renal disease
Aged cats
  progression of renal disease: does not hasten progression of renal disease
daily, oral suspension, both the renal treated and non-renal treated groups
  median maintenance dose after dose titration to the lowest effective dose: 0.02 mg/kg
non-renal group treated with meloxicam vs non-renal group not treated, median treatment duration 400 days
  progression of renal parameters: no differences
[1]
  loss of urine concentrating ability: no statistically significant differences
  weight loss: no statistically significant differences
Renal group (IRIS stage 1-3) treated with meloxicam vs age and IRIS matched untreated renal group, median treatment duration 527 days
  progression of renal parameters: no differences
[2]
  loss of urine concentrating ability: no statistically significant differences
  weight loss: no statistically significant differences
Renal group treated with meloxicam vs renal untreated group
  mean serum creatinine concentration increase over time: increased statistically significantly less
